Laboratory results from patent US20220402950A1, “SUBSTITUTED BENZIMIDAZOLES AS PAD4 INHIBITORS” (BRISTOL-MYERS SQUIBB COMPANY, priority 2018, published 2022).
Read-outs that look alike come from different tables or passages of the source.

Biological target: human PAD4 (hPAD4) (Homo sapiens, UniProt Q9UM07)
Assay: RFMS Human PAD4 Functional Assay
Type: biochemical
Details: 5 nM hPAD4, 250 μM BAEE
Outline: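 RapidFire ESI-MS quantification, normalised to a modified-citrulline internal standard, after phenyl glyoxal (final 4 mM) derivatisation of the TCA-quenched reaction. The enzyme (10 nM) sat 30 min with compound (up to 50 μM final) before 500 μM BAEE (as added) started a 90 min, 37 °C reaction. Buffer: HEPES pH 7.5, 50 μM calcium, 5 μM TPEN.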

[1] = hPAD4 RFMS IC50, human PAD4, rapid-fire mass spectrum (RFMS) assay
[2] = human PAD4, rapid-fire mass spectrum (RFMS) assay, read-out: hPAD4 RFMS IC50

Sequence of human PAD4 (hPAD4) (Q9UM07 whole entry): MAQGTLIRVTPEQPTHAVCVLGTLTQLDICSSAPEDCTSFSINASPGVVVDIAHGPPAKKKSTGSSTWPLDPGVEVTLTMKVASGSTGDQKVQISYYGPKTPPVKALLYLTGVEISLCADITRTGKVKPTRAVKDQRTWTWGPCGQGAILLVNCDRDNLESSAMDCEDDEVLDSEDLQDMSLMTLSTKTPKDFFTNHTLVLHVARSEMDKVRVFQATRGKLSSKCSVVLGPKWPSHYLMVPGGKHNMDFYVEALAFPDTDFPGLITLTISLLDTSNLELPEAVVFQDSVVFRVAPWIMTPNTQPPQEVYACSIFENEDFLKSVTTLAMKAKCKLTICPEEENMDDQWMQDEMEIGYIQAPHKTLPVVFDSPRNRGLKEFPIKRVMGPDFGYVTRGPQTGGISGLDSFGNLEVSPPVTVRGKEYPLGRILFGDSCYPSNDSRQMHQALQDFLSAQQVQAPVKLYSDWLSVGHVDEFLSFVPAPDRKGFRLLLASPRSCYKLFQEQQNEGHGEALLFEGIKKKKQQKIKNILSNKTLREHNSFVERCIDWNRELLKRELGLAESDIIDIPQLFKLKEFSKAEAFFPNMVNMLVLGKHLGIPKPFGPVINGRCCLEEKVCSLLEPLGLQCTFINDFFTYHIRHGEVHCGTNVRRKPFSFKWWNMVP

Row | IC50 [1] [µM] | IC50 [2] [µM] | SMILES
1 | 0.18 |  | COc1cc(C(=O)N2C[C@H]3CC[C@@H]2[C@@H]3N)cc2nc(-c3cc4cccc(-c5cn(CC(C)(C)O)nc5C)c4n3CC3CC3)n(C)c12 [Example 139, ((1R,4R,7R)-7-amino-2-azabicyclo[2.2.1]heptan-2-yl)(2-(1-(cyclopropylmethyl)-7-(1-(2-hydroxy-2-methylpropyl)-3-methyl-1H-pyrazol-4-yl)-1H-indol-2-yl)-7-methoxy-1-methyl-1H-benzo[d]imidazol-5-yl)methanone]
2 | 0.106 |  | COc1cc(C(=O)N2C[C@H]3CC[C@@H]2[C@@H]3N)cc2nc(-c3cc4cccc(-c5cnn(CC(C)(C)O)c5)c4n3CC3CC3)n(C)c12 [Example 140, ((1R,4R,7R)-7-amino-2-azabicyclo[2.2.1]heptan-2-yl)(2-(1-(cyclopropylmethyl)-7-(1-(2-hydroxy-2-methylpropyl)-1H-pyrazol-4-yl)-1H-indol-2-yl)-7-methoxy-1-methyl-1H-benzo[d]imidazol-5-yl)methanone]
3 | 0.101 |  | COc1cc(C(=O)N2C[C@H]3CC[C@@H]2[C@@H]3N)cc2nc(-c3cc4cccc(-c5cnn(CCO)c5)c4n3CC3CC3)n(C)c12 [Example 141, ((R,4R,7R)-7-amino-2-azabicyclo[2.2.1]heptan-2-yl)(2-(1-(cyclopropylmethyl)-7-(1-(2-hydroxyethyl)-1H-pyrazol-4-yl)-1H-indol-2-yl)-7-methoxy-1-methyl-1H-benzo[d]imidazol-5-yl)methanone]
4 | 0.181 |  | COc1cc(C(=O)N2C[C@@H]3CC[C@@H]2C3N)cc2nc(-c3cc4cccc(-c5ccccc5C#N)c4n3CC3CC3)n(C)c12 (stereo partly drawn) [Example 143, 2-(2-(5-((1R,4S)-7-amino-2-azabicyclo[2.2.1]heptane-2-carbonyl)-7-methoxy-1-methyl-1H-benzo[d]imidazol-2-yl)-1-(cyclopropylmethyl)-1H-indol-7-yl)benzonitrile]
5 | 0.123 |  | COc1cc(C(=O)N2C[C@H]3CC[C@@H]2[C@@H]3N)cc2nc(-c3cc4cccc(Cl)c4n3CC3CC3)n(C)c12 [Example 145, ((1R,4R,7R)-7-amino-2-azabicyclo[2.2.1]heptan-2-yl)(2-(7-chloro-1-(cyclopropylmethyl)-1H-indol-2-yl)-7-methoxy-1-methyl-1H-benzo[d]imidazol-5-yl)methanone]
6 | 0.052 |  | COc1cc(C(=O)N2C[C@H]3CC[C@@H]2[C@@H]3N)cc2nc(-c3cc4cccc(Br)c4n3CC3CC3(F)F)n(C)c12 (stereo partly drawn) [Example 146, ((1R,4R,7R)-7-amino-2-azabicyclo[2.2.1]heptan-2-yl)(2-(7-bromo-1-((2,2-difluorocyclopropyl)meth-yl)-1H-indol-2-yl)-7-methoxy-1-methyl-1H-benzo[d]imidazol-5-yl)methanone]
7 | 0.079 |  | COc1cc(C(=O)N2C[C@H]3CC[C@@H]2[C@@H]3N)cc2nc(-c3cc4cccc(C)c4n3CC3CC3)n(C)c12 [Example 147, ((1R,4R,7R)-7-amino-2-azabicyclo[2.2.1]heptan-2-yl)(2-(1-(cyclopropylmethyl)-7-methyl-1H-indol-2-yl)-7-methoxy-1-methyl-1H-benzo[d]imidazol-5-yl)methanone]
8 | 0.061 |  | COc1cc(C(=O)N2C[C@H]3CC[C@@H]2[C@@H]3N)cc2nc(-c3cc4cccc(OC)c4n3CC3CC3)n(C)c12 [Example 148, ((1R,4R,7R)-7-amino-2-azabicyclo[2.2.1]heptan-2-yl)(2-(1-(cyclopropylmethyl)-7-methoxy-1H-indol-2-yl)-7-methoxy-1-methyl-1H-benzo[d]imidazol-5-yl)methanone]
9 | 0.168 |  | COc1cc(C(=O)N2C[C@H]3CC[C@@H]2[C@@H]3N)cc2nc(-c3cc4cccc(-c5cnc(C#N)nc5)c4n3CC3CC3(F)F)n(C)c12 (stereo partly drawn) [Example 149, 5-(2-(5-((1R,4R,7R)-7-amino-2-azabicyclo[2.2.1]heptane-2-carbonyl)-7-methoxy-1-methyl-1H-benzo[d]imidazol-2-yl)-1-((2,2-difluorocyclopropyl)meth-yl)-1H-indol-7-yl)pyrimidine-2-carbonitrile]
10 | 0.046 |  | COc1cc(C(=O)N2C[C@H]3CC[C@@H]2[C@@H]3N)cc2nc(-c3cc4cccc(-c5cn[nH]c5)c4n3CC3CC3(F)F)n(C)c12 (stereo partly drawn) [Example 150, ((1R,4R,7R)-7-amino-2-azabicyclo[2.2.1]heptan-2-yl)(2-(1-((2,2-difluorocyclopropyl)meth-yl)-7-(1H-pyrazol-4-yl)-1H-indol-2-yl)-7-methoxy-1-methyl-1H-benzo[d]imidazol-5-yl)methanone]
11 | 0.104 |  | COc1cc(C(=O)N2C[C@H]3CC[C@@H]2[C@@H]3N)cc2nc(-c3cc4cccc(-c5cn[nH]c5)c4n3CC3CC3(Cl)Cl)n(C)c12 (stereo partly drawn) [Example 151, ((1R,4R,7R)-7-amino-2-azabicyclo[2.2.1]heptan-2-yl)(2-(1-((2,2-dichlorocyclopropyl)meth-yl)-7-(1H-pyrazol-4-yl)-1H-indol-2-yl)-7-methoxy-1-methyl-1H-benzo[d]imidazol-5-yl)methanone]
12 | 0.127 |  | COc1cc(C(=O)N2C[C@H]3CC[C@@H]2[C@@H]3N)cc2nc(-c3cc4cccc(-c5cc[nH]n5)c4n3CC3CC3(Cl)Cl)n(C)c12 (stereo partly drawn) [Example 152, ((1R,4R,7R)-7-amino-2-azabicyclo[2.2.1]heptan-2-yl)(2-(1-((2,2-dichlorocyclopropyl)meth-yl)-7-(1H-pyrazol-3-yl)-1H-indol-2-yl)-7-methoxy-1-methyl-1H-benzo[d]imidazol-5-yl)methanone]
13 |  | 0.135 | COc1cc(C(=O)N2C[C@H]3CC[C@@H]2[C@@H]3N)cc2nc(-c3cc4cc(C)ccc4n3CC3CC3)n(C)c12 [Example 153, ((1R,4R,7R)-7-amino-2-azabicyclo[2.2.1]heptan-2-yl)(2-(1-(cyclopropylmethyl)-5-methyl-1H-indol-2-yl)-7-methoxy-1-methyl-1H-benzo[d]imidazol-5-yl)methanone]
14 | 0.043 |  | COc1cc(C(=O)N2C[C@H]3CC[C@@H]2[C@@H]3N)cc2nc(-c3cc4cc(C)cc(-c5cn[nH]c5)c4n3CC3CC3)n(C)c12 [Example 154, ((1R,4R,7R)-7-amino-2-azabicyclo[2.2.1]heptan-2-yl)(2-(1-(cyclopropylmethyl)-5-methyl-7-(1H-pyrazol-4-yl)-1H-indol-2-yl)-7-methoxy-1-methyl-1H-benzo[d]imidazol-5-yl)methanone]
15 | 0.171 |  | COc1cc(C(=O)N2C[C@H]3CC[C@@H]2[C@@H]3N)cc2nc(-c3cc4cccc(-c5ccccc5C#N)c4n3CC3CC3C)n(C)c12 (stereo partly drawn) [Example 155, 2-(2-(5-((1R,4R,7R)-7-amino-2-azabicyclo[2.2.1]heptane-2-carbonyl)-7-methoxy-1-methyl-1H-benzo[d]imidazol-2-yl)-1-((2-methylcyclopropyl)meth-yl)-1H-indol-7-yl)benzonitrile]
16 | 0.079 |  | COc1cc(C(=O)N2C[C@H]3CC[C@@H]2[C@@H]3N)cc2nc(-c3cc4cccc(-c5cn[nH]c5)c4n3CC3CC3C)n(C)c12 (stereo partly drawn) [Example 156, ((1R,4R,7R)-7-amino-2-azabicyclo[2.2.1]heptan-2-yl)(7-methoxy-1-methyl-2-(1-((2-methylcyclopropyl)meth-yl)-7-(1H-pyrazol-4-yl)-1H-indol-2-yl)-1H-benzo[d]imidazol-5-yl)methanone]
17 | 0.08 |  | COc1cc(C(=O)N2C[C@H]3CC[C@@H]2[C@@H]3N)cc2nc(-c3cc4cccc(-c5cc[nH]n5)c4n3CC3CC3C)n(C)c12 (stereo partly drawn) [Example 157, ((1R,4R,7R)-7-amino-2-azabicyclo[2.2.1]heptan-2-yl)(7-methoxy-1-methyl-2-(1-((2-methylcyclopropyl)meth-yl)-7-(1H-pyrazol-3-yl)-1H-indol-2-yl)-1H-benzo[d]imidazol-5-yl)methanone]
18 |  | 0.069 | COc1cc(C(=O)N2C[C@H]3CC[C@@H]2[C@@H]3N)cc2nc(-c3cc4cccc(NC5CCNCC5)c4n3CC3CC3)n(C)c12 [Example 158, ((1R,4R,7R)-7-amino-2-azabicyclo[2.2.1]heptan-2-yl)(2-(1-(cyclopropylmethyl)-7-(piperidin-4-ylamino)-1H-indol-2-yl)-7-methoxy-1-methyl-1H-benzo[d]imidazol-5-yl)methanone]
19 | 0.15 |  | COc1cc(C(=O)N2CC3CCC2C3N)cc2nc(-c3cc4cccc(NCC5CNC5)c4n3CC3CC3)n(C)c12 (stereo not shown) [Example 159, (7-amino-2-azabicyclo[2.2.1]heptan-2-yl)(2-(7-((azetidin-3-ylmethyl)amino)-1-(cyclopropylmethyl)-1H-indol-2-yl)-7-methoxy-1-methyl-1H-benzo[d]imidazol-5-yl)methanone]
20 | 0.11 |  | COc1cc(C(=O)N2CC3CCC2[C@@H]3N)cc2nc(-c3cc4cccc(Nc5ccnc(C(N)=O)n5)c4n3CC3CC3)n(C)c12 (stereo partly drawn) [Example 160, 4-((2-(5-((7R)-7-amino-2-azabicyclo[2.2.1]heptane-2-carbonyl)-7-methoxy-1-methyl-1H-benzo[d]imidazol-2-yl)-1-(cyclopropylmethyl)-1H-indol-7-yl)amino)pyrimidine-2-carboxamide]
21 | 0.103 |  | COc1cc(C(=O)N2CC3CCC2[C@@H]3N)cc2nc(-c3cc4cccc(Nc5cc(C)nc(C)c5)c4n3CC3CC3)n(C)c12 (stereo partly drawn) [Example 161, ((7R)-7-amino-2-azabicyclo[2.2.1]heptan-2-yl)(2-(1-(cyclopropylmethyl)-7-((2,6-dimethylpyridin-4-yl)amino)-1H-indol-2-yl)-7-methoxy-1-methyl-1H-benzo[d]imidazol-5-yl)methanone]
22 | 0.098 |  | CCOC(=O)c1ccc(Nc2cccc3cc(-c4nc5cc(C(=O)N6CC7CCC6[C@@H]7N)cc(OC)c5n4C)n(CC4CC4)c23)cc1 (stereo partly drawn) [Example 162, ethyl 4-((2-(5-((7R)-7-amino-2-azabicyclo[2.2.1]heptane-2-carbonyl)-7-methoxy-1-methyl-1H-benzo[d]imidazol-2-yl)-1-(cyclopropylmethyl)-1H-indol-7-yl)amino)benzoate]
